From ChEMBL document CHEMBL6134800, “Applications of innovative synthetic strategies in anticancer drug discovery: The driving force of new chemical reactions” (Bioorg Med Chem Lett, 2025)
Converted amounts (≈) assume the structure as drawn. Blank lines part the entries; values can stand above or below the compound they belong to.

Assays:
A549 [1] = experiment: Cytotoxicity against human A549 cells assessed as reduction in cell viability by MTT assay; assay type: functional, cell-based
MCF7 [2] = experiment: Cytotoxicity against human MCF7 cells assessed as reduction in cell viability by MTT assay; assay type: functional, cell-based
[3] = Cytotoxicity against human BEAS-2B cells assessed as reduction in cell viability by MTT assay; assay type: toxicity, cell-based
BXPC-3 = experiment: Antiproliferative activity against human BXPC-3 cells assessed as reduction in cell growth incubated for 72 hrs by MTT assay; assay type: functional, cell-based
HeLa [4] = experiment: Antiproliferative activity against human HeLa cells assessed as reduction in cell viability incubated for 24 hrs by MTT assay; assay type: functional, cell-based
A549 [5] = experiment: Antiproliferative activity against human A549 cells assessed as reduction in cell viability incubated for 24 hrs by MTT assay; assay type: functional, cell-based; conditions: A549, 24 h
HCT-116 [6] = experiment: Antiproliferative activity against human HCT-116 cells assessed as reduction in cell viability incubated for 24 hrs by MTT assay; assay type: functional, cell-based; conditions: HCT-116, 24 h
A549 [7] = experiment: Cytotoxicity against human A549 cells assessed as reduction in cell growth by resazurin assay; assay type: functional, cell-based
NIH3T3 = experiment: Cytotoxicity against mouse NIH/3T3 cells assessed as reduction in cell growth by resazurin assay; assay type: functional, cell-based
A549 [8] = experiment: Growth inhibition of human A549 cells measured for 48 hrs by SRB assay; assay type: functional
PC-3 = experiment: Growth inhibition of human PC-3 cells measured for 48 hrs by SRB assay; assay type: functional
MCF7 [9] = experiment: Growth inhibition of human MCF7 cells measured for 48 hrs by SRB assay; assay type: functional
HepG2 [10] = experiment: Growth inhibition of human HepG2 cells measured for 48 hrs by SRB assay; assay type: functional
[11] = target: Cyclin-dependent kinases regulatory subunit 1/S-phase kinase-associated protein 2 (Homo sapiens) (UniProt P61024+Q13309); experiment: Inhibition of SKP2/CKS1 (unknown origin) protein-protein interaction at 50 uM relative to control; assay type: protein assay
MDA-MB-231 [12] = experiment: Antiproliferative activity against human MDA-MB-231 cells; assay type: functional, cell-based
T47D = experiment: Antiproliferative activity against human T47D cells; assay type: functional, cell-based
MCF7 [13] = experiment: Antiproliferative activity against human MCF7 cells; assay type: functional, cell-based
LoVo = experiment: Antiproliferative activity against human LoVo cells; assay type: functional, cell-based
HCT-116 [14] = experiment: Antiproliferative activity against human HCT-116 cells; assay type: functional, cell-based
HCT-116 [15] = experiment: Anticancer activity against human HCT-116 cells assessed as inhibition of cell viability at 20 uM relative to control; assay type: functional
HCT-116 [16] = experiment: Anticancer activity against human HCT-116 cells assessed as reduction in cell viability; assay type: functional, cell-based
MCF7 [17] = experiment: Cytotoxicity against human MCF7 cells assessed as reduction in cell viability incubated for 48 hrs by SRB assay; assay type: functional, cell-based; conditions: MCF7, 48 h
DU-145 = experiment: Cytotoxicity against human DU-145 cells assessed as reduction in cell viability incubated for 48 hrs by SRB assay; assay type: functional, cell-based; conditions: DU-145, 48 h
MDA-MB-231 [18] = experiment: Cytotoxicity against human MDA-MB-231 cells assessed as reduction in cell viability incubated for 48 hrs by SRB assay; assay type: functional, cell-based; conditions: MDA-MB-231, 48 h
HepG2 [19] = experiment: Cytotoxicity against human HepG2 cells assessed as reduction in cell viability incubated for 48 hrs by SRB assay; assay type: functional, cell-based; conditions: HepG2, 48 h
HeLa [20] = experiment: Cytotoxicity against human HeLa cells assessed as reduction in cell viability incubated for 48 hrs by SRB assay; assay type: functional, cell-based
[21] = Antioxidant activity assessed as hydroxyl radical scavenging activity; assay type: functional
[22] = Antioxidant activity assessed as DPPH radical scavenging activity; assay type: functional
Bacillus subtilis = experiment: Antibacterial activity against Bacillus subtilis assessed as reduction in bacterial growth; assay type: functional, organism-based
HL-60 = experiment: Cytotoxicity against human HL-60 cells assessed as reduction in cell growth by resazurin assay; assay type: functional, cell-based
Escherichia coli = experiment: Antimicrobial activity against Escherichia coli assessed as reduction in microbial growth; assay type: functional, organism-based
HeLa [23] = experiment: Antiproliferative activity against human HeLa cells assessed as reduction in cell viability incubated for 48 hrs by MTT assay; assay type: functional, cell-based

Cyclin-dependent kinases regulatory subunit 1/S-phase kinase-associated protein 2 (Homo sapiens), sequence (P61024 2-79 limits assumed): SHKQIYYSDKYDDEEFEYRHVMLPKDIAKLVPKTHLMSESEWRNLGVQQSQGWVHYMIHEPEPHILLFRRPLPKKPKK
Cyclin-dependent kinases regulatory subunit 1/S-phase kinase-associated protein 2 (Homo sapiens), sequence (Q13309 whole entry partner): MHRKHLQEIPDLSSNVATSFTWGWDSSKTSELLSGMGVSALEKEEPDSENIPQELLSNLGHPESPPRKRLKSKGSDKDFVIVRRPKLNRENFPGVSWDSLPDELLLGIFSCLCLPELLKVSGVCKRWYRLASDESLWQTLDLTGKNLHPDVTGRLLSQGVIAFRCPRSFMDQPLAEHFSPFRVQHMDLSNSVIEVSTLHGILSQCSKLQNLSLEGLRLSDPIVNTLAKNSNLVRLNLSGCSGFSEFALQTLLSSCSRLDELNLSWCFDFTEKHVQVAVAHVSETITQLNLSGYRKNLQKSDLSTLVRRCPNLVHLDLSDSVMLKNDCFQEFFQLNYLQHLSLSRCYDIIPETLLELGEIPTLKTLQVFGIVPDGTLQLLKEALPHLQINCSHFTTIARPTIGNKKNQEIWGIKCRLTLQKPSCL

Compound: COC(=O)c1nc2nc(Oc3ccccc3)c(C#N)c(-c3ccc([N+](=O)[O-])cc3)c2c(N)c1C(=O)OC
IC50 (A549 [1]): 8.24 µg/mL (≈ 16.5 µM) | IC50 (MCF7 [2]): 7.57 µg/mL (≈ 15.2 µM) | IC50 [3]: 51.3 µg/mL (≈ 103 µM)

Compound: Nc1ccn([C@@H]2O[C@H](CO)[C@@H](O)C2(F)F)c(=O)n1 [GEMCITABINE]
IC50 (BXPC-3; Homo sapiens, BXPC-3, 72 h): 2.3 µM

Compound: COc1cccc2c1C(=O)c1c(O)c3c(c(O)c1C2=O)C[C@@](O)(C(=O)CO)C[C@@H]3O[C@H]1C[C@H](N)[C@H](O)[C@H](C)O1 [DOXORUBICIN]
IC50 (A549 [7]): 0.31 µM | IC50 (NIH3T3): 5.65 µM | GI50 (A549 [8]): < 10 µg/mL | GI50 (PC-3): < 10 µg/mL | GI50 (MCF7 [9]): < 10 µg/mL | GI50 (HepG2 [10]): < 10 µg/mL | IC50 [3]: 4.18 µg/mL (≈ 7.69 µM)

Compound: C=C1N(S(=O)(=O)c2ccc(C)cc2)c2ccccc2[C@]1(C)N
IC50 (MDA-MB-231 [12]): 2.15 µM | IC50 (T47D): 2.88 µM | IC50 (MCF7 [13]): 2.21 µM | IC50 (LoVo): 3.65 µM | IC50 (HCT-116 [14]): 4.3 µM

Compound: COC(=O)c1nc2nc(Oc3ccccc3)c(C#N)c(-c3ccc(OC)cc3)c2c(N)c1C(=O)OC
IC50 (A549 [1]): 10.1 µg/mL (≈ 20.9 µM) | IC50 (MCF7 [2]): 48.2 µg/mL (≈ 99.6 µM) | IC50 [3]: 51.3 µg/mL (≈ 106 µM)

Compound: CCOC(=O)c1sc(-c2ccc(OCC(C)C)c(C(Nc3ccc(OC)cc3)P(=O)(OCC)OCC)c2)nc1C (stereo unspecified)
IC50 (MCF7 [17]): 12.5 µg/mL (≈ 21.2 µM) | IC50 (DU-145): 3.02 µg/mL (≈ 5.11 µM) | IC50 (MDA-MB-231 [18]): 8.18 µg/mL (≈ 13.8 µM) | IC50 (HepG2 [19]): 22 µg/mL (≈ 37.3 µM) | IC50 (HeLa [20]): 10.7 µg/mL (≈ 18.1 µM)

Compound: CN[C@@H]1[C@@H](O)[C@@H](O[C@@H]2[C@@H](O)[C@H](O[C@H]3O[C@H](CN)CC[C@H]3N)[C@@H](N)C[C@H]2N)OC[C@]1(C)O [GENTAMICIN C1A]
IC50 (Bacillus subtilis): 0.115 µM

Compound: Cc1cc(C)cc(P(=O)(c2cc(C)cc(C)c2)C2C(C#N)=C(N)Oc3c(Br)cccc32)c1 (stereo unspecified)
IC50 (A549 [7]): > 30 µM | IC50 (NIH3T3): > 30 µM | IC50 (HL-60): 9.8 µM | IC50 (Bacillus subtilis): > 10 µM | IC50 (Escherichia coli): > 10 µM

Compound: CCOC(=O)c1sc(-c2ccc(OCC(C)C)c(C(Nc3ccc(C(F)(F)F)cc3I)P(=O)(OCC)OCC)c2)nc1C (stereo unspecified)
IC50 (MCF7 [17]): 14.1 µg/mL (≈ 18.7 µM) | IC50 (DU-145): 3.34 µg/mL (≈ 4.43 µM) | IC50 (MDA-MB-231 [18]): 8.54 µg/mL (≈ 11.3 µM) | IC50 (HepG2 [19]): 26.1 µg/mL (≈ 34.6 µM) | IC50 (HeLa [20]): 12.3 µg/mL (≈ 16.3 µM)

Compound: CCOC(=O)c1sc(-c2ccc(OCC(C)C)c(C(Nc3ccc([N+](=O)[O-])cc3)P(=O)(OCC)OCC)c2)nc1C (stereo unspecified)
IC50 (MCF7 [17]): 12.3 µg/mL (≈ 20.3 µM) | IC50 (DU-145): 2.13 µg/mL (≈ 3.52 µM) | IC50 (MDA-MB-231 [18]): 6.3 µg/mL (≈ 10.4 µM) | IC50 (HepG2 [19]): 20.9 µg/mL (≈ 34.5 µM) | IC50 (HeLa [20]): 9.6 µg/mL (≈ 15.9 µM)

Compound: Cc1cc(C)cc(P(=O)(c2cc(C)cc(C)c2)C2C(C#N)=C(N)Oc3ccc(F)cc32)c1 (stereo unspecified)
IC50 (A549 [7]): > 30 µM | IC50 (NIH3T3): > 30 µM | IC50 (HL-60): 10.1 µM | IC50 (Bacillus subtilis): 5.03 µM | IC50 (Escherichia coli): > 10 µM

Second part, led by results:

IC50 (HeLa [4]): 6.65 µM | IC50 (A549 [5]): 12.3 µM | IC50 (HCT-116 [6]): 14.9 µM
Compound: COc1ccc(C2c3ccccc3-c3nc(C)cc(C(F)(F)F)c32)cc1 (stereo unspecified)

IC50 (HeLa [4]): 5.52 µM | IC50 (A549 [5]): 19.5 µM | IC50 (HCT-116 [6]): 15.4 µM
Compound: COc1ccc(C2c3ccccc3-c3nc(C)cc(C(F)(F)F)c32)cc1OC (stereo unspecified)

inhibition [11]: 54%
Compound: COc1ccc(N2C(=O)c3ccccc3C2Cc2cc(-c3c(OC)cc(OC)cc3OC)n3ncnc3n2)cc1 (stereo unspecified)

IC50 (HCT-116 [16]): 7.6 µM
Compound: CC(C)OC(=O)C1=CN(c2cccc(Br)c2)CC(O)(c2ccccc2)O1 (stereo unspecified)
inhibition at 20 µM (HCT-116 [15]): 59%

IC50 (BXPC-3; Homo sapiens, BXPC-3, 72 h): 1.7 µM
Compound: Cc1ccc([C@@H]2NC(=O)n3c(cc4ccccc43)C23CC3)cc1

IC50 [21]: 31.3 µM | GI50 (A549 [8]): < 10 µg/mL | GI50 (PC-3): < 10 µg/mL | GI50 (MCF7 [9]): < 10 µg/mL | GI50 (HepG2 [10]): < 10 µg/mL | IC50 [22]: 29.8 µM
Compound: CCc1cc(C(=O)c2ccccc2Cl)c(NC(c2ccc(F)cc2)c2c(O)ccc3ccccc23)s1 (stereo unspecified)

IC50 (BXPC-3; Homo sapiens, BXPC-3, 72 h): 3.1 µM
Compound: Cc1ccc(C2NC(=O)n3c(cc4ccccc43)C23CC3)cc1 (racemic)

IC50 (HeLa [4]): 1.54 µM | IC50 (A549 [5]): 8.43 µM | IC50 (HCT-116 [6]): 2.1 µM
Compound: COc1ccccc1C1=C2C(=O)c3ccccc3C(=O)/N=C3/c4ccccc4C(=O)C23c2cccc3c2N1CC3 (stereo unspecified)

IC50 (BXPC-3; bxpc-3): 8.6 µM
Compound: Cc1ccc([C@H]2NC(=O)n3c(cc4ccccc43)C23CC3)cc1 (stereo in doubt; 16a)

IC50 (MDA-MB-231 [12]): 6.66 µM | IC50 (T47D): 17.7 µM | IC50 (MCF7 [13]): 16.1 µM | IC50 (LoVo): > 25 µM | IC50 (HCT-116 [14]): > 25 µM
Compound: C=C1N(S(=O)(=O)c2ccc(C)cc2)c2ccccc2[C@@]1(C)N

IC50 (HeLa [23]): 26.7 µM
Compound: Cc1nn(-c2ccccc2Cl)c(O)c1-c1ccccc1C1=Nc2ccccc2C1(C)C

IC50 (A549 [5]): 1 µM
Compound: CN1C(=O)C2(N=C(c3ccccc3)N3CCc4cc(Br)cc2c43)c2ccccc21 (stereo unspecified)

IC50 (HeLa [4]): 2.32 µM | IC50 (A549 [5]): > 50 µM | IC50 (HCT-116 [6]): > 50 µM
Compound: Cc1cc(C(F)(F)F)c2c(n1)-c1ccccc1C2c1ccsc1 (stereo unspecified)
